In patent publication US5833994A, “Use of the AH receptor and AH receptor ligands to treat or prevent cytopathicity of viral infection” (Paracelsian, Inc., priority 1997, dated 1998):
Entries after “also recorded” stand apart in the source; their conditions may differ.

What was measured:
Cyclin B [1] = experiment: Inhibition of cyclin B overexpression, western blot densitometry; format: cell-based; settings: TCDD, 10 nM; mean ± standard error, n=5 or 6; 2-8 co-culture 61.88, 2-2 co-culture 10.14
Method: (§1) The expression of the protein kinase c-Mos was induced in addition to alterations in cell cycle (CDK1, cyclin B) and apoptotic (Bcl-2 and Bax) protein concentrations and phosphorylation status. CDK1 became hyperphosphorylated whereas cyclin B, Bcl-2, and Bax expression were elevated. Assay for these biochemical changes was performed by western blot analysis using equal amounts of cell lysate proteins derived from cells cultured with the respective Ah receptor ligands. Responses were quantified by scanning densitometry.
(§2) Data from Table 2 represents the mean ± standard error of scanning densitometric units (n=5 or 6 individual scans from separate experiments).Doses used were as follows: TCDD, 10 nM; Substituted Furans (6-nitro 1,3,8-trichlorodibenzofuran; 6-isopropyl, 1,3,8-trichlorodibenzofuran; 6-methyl, 1,3,8-trichlorodibenzofuran; 1-bromo, 6-methyl, 3,8-dichlorodibenzofuran), 2 μM. All four alkyl substituted furan compounds that were tested yielded approximately equivalent responses so their responses were combined.

Cyclin B [2] = experiment: Inhibition of cyclin B overexpression (cyclin B ELISA; FIGS. 2 and 3); format: cell-based; settings: FIG. 2 / FIG. 3
Method: Cyclin B ELISA procedure: The overexpression Cyclin B has become associated with HIVenv 2-8 cytopathicity. This biochemical response and it's inhibition by Ah receptor ligands has been assayed by ELISA. Following 24 hours of co-culture in 96 well microtiter tissue culture plates, the cells are washed 1X with PBS buffer and then lysed with 50 μL lysis buffer (50 mM Tris, […], 10% glycerol, 1% NP-40) with shaking at 4° C. for 30 minutes. Thirty microliters of the cell lysate were then transferred into Immulon 4™ ELISA strip plates and 70 μL of coating buffer (0.2M Borate pH 10.5) added to bring the final microtiter well volume to 100 μL The plates were then incubated at 37° C. for 1 hour to allow for coating. The plates are then washed 3X with 300 μl TBST (20 mM Tris, 150 mM NaCl, 0.05% Tween 20, pH 7.5), incubated with 125 μL of blocking solution for 5 minutes, washed 3X, incubated with horseradish peroxidase labeled anti-mouse IgG for 1 hour at room temperature, washed 3X, and then incubated with 100 μL TMB substrate for 30 minutes at room temperature. Stop solution (2.5M sulfuric acid, 100 μL) was then added to prevent further color development and the plate was read at an optical density of 450 nm.
Data Reduction for this ELISA: HIVenv 2-2 co-culture ELISA values are used as the background for HIVenv 2-8 co-culture values. […]

CDK1 = experiment: Inhibition of CDK1 hyperphosphorylation, western blot densitometry; format: cell-based; settings: TCDD, 10 nM; mean ± standard error, n=5 or 6; 2-8 co-culture 44.27, 2-2 co-culture 10.41
Method: as §1, §2

[3] = tested on: HIV envelope gp120/41-induced syncytia formation in CD4+T cell lines (HIVenv 2-8 co-culture); experiment: Inhibition of HIVenv 2-8-induced syncytia formation / cell death (HIV-1 co-culture assay); format: cell-based; settings: for Estimated IC50 (Syncitia Quantification), inhibition of HIV-induced cytopathicity: Table 1
Method: Sourcing of Ah Receptor Ligands: The Ah receptor ligands 2,3,7,8-Tetrachlorodibenzo-p-dioxin, 3,3',4,4',5-Pentachlorobiphenyl, 3,3',4,'4-Tetrachlorobiphenyl, and 2-Monochlorodibenzo-p-dioxin compounds were purchased from Accustandard (Cambridge, Mass.). α-naphthoflavone was purchased from Sigma (St. Louis, Mo.). Stock solutions of each compound were prepared by dissolution in DMSO at a 1000X concentration, i.e. the highest concentration tested was diluted by 1000-fold.
Bioassay Procedure: The cell lines utilized in the assay protocol include the following: HIVenv 2-2 (non-cytopathic), HIVenv 2-8 (cytopathic), Jurkat CD4+T cell line (clone E6-1), and SupT1. Cell lines were cultured in RPMI medium (Gibco, Grand Island, N.Y.) supplemented with L-glutamine (Sigma, St. Louis, Mo.) and 10% FBS-HI (Intergen). The Jurkat CD4+T cell line was obtained from American Type Culture Collection (Bethesda, Md.). All other cell lines were obtained from the National Institutes of Health. The HIVenv 2-2 or HIVenv 2-8 cells were plated with both CD4+T cell lines (1×10^3 cells per cell line in 16 μL of media.) in a 96-well tissue culture plate containing 50 μL of media with compound to be tested yielding a final volume of approximately 100 μL. The plates were then gently shaken to ensure adequate mixing of the assay components. Cells were then co-cultured at 5% CO2, 37C., and 95% humidity for 24 to 48 hours. The time points were chosen for the convenience, cytopathic changes become evident in the cell cultures used within a 2 to 4 hour period, becoming more and more prominent with time.
Data Reduction for this ELISA: HIVenv 2-2 co-culture ELISA values are used as the background for HIVenv 2-8 co-culture values. Dose responses are then plotted with dose along the x-axis and the background corrected optical density values on the y-axis.
Positive and Negative Controls: The use of the HIVenv 2-2 cell line serves as a negative control for induction of cytopathicity.
(§3) Interpretation of the Test: A positive response was defined as a dose-related decrease in syncytia formation in excess of 50% compared to HIVenv 2-8 co-cultures alone. Calculation of median effective doses was estimated by visual observation and by quantification of syncitia in 10X power microscope fields.
The Materials and Methods used in the testing of the various dibenzofuran compounds were the same as those used in Example 1 above. This includes the use of the same controls, cell lines, and assay procedures.
as §3, with “fields. Another procedure which provides data similar to the Bioassay procedure just described allows for quantification of changes in the co-culture cells through an ELISA method, not as reliant on visual observation. […]” for “fields.”

Ah receptor [4] = biological target: T1, Ah receptor (Cavia porcellus, UniProt Q6J287); experiment: Ah receptor transformation, agonist test (Ah-immunoassay, absence of TCDD); format: biochemical, Guinea pig
T1 sequence (Q6J287 1-846): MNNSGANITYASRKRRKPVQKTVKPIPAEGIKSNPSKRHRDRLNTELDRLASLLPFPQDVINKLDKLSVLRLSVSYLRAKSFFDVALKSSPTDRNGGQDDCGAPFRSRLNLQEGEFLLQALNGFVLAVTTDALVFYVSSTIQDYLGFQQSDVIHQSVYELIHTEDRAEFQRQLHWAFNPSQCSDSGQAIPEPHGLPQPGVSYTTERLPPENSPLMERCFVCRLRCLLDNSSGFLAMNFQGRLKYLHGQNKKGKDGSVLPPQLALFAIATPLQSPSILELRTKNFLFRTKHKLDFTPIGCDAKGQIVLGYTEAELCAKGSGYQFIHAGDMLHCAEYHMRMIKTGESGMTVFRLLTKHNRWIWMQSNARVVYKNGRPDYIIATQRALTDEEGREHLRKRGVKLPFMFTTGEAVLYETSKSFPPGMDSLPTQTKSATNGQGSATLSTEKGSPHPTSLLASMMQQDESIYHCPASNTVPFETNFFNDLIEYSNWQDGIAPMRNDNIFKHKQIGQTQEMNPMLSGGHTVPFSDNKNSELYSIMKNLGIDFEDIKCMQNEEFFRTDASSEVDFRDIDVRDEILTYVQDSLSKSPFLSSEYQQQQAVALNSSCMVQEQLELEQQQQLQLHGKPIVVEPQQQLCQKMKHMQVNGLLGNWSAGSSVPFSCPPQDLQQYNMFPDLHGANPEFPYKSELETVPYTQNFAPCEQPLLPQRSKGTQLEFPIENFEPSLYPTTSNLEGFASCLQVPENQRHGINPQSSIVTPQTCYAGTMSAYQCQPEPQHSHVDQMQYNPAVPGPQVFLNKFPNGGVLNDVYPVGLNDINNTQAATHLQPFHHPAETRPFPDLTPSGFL
Method: Cytosol was prepared as described above.
Diluent for TCDD dose response, diluent for extracts (detection of agonists), and negative control: The cytosol is treated with 1 μL DMSO per 1 mL cytosol (-).
1 nM TCDD treated, positive control. […] DMSO diluent for detection of agonists: the cytosol is treated with μL DMSO per 1 mL cytosol. (1 nm final concentration of TCDD).

[5] = tested on: transformed, cancerous cells; settings: cited from earlier work
Ah receptor [6] = biological target: T1, Ah receptor; experiment: Inhibition of Ah receptor transformation, antagonist test (Ah-immunoassay, 0.5 nM TCDD)
Method: Cytosol was prepared as described in methods and treated with TCDD, DMSO or TCM extract to make 1) 0.5 nM TCDD, 2) 0.1% DMSO, or 3) 500 μg/mL TCM extract, respectively. The treated cytosol was serially diluted in a neutravidin-coated ELISA plate (Pierce, Rockford, Ill.). […] To treat for Ah receptor agonist activity, extracts were diluted in 0.5 nM TCDD treated cytosol to 250, 125, and 62.5 μg/mL of TCM extracts.
Ten mL aliquots of cytosol were thawed and pooled, generally 20 mL per ELISA plate. For each 20 mL of cytosol, 10 μL of thawed DRE stock and 1 mL HEDG in 4M NaCl were added.
0.5 nM TCDD Diluent for extracts (detection of antagonists): The cytosol is treated with 1 μl of 1 μM TCDD per 2 mL cytosol (0.5 nm).
500 μg/mL extracts (detection of antagonists): 1 μL of test extract (500 mg/mL in DMSO) in 1 mL 0.5 nM TCDD-treated cytosol (500 μg/mL final concentration of extract in cytosol).
Serial dilution's of the extracts and/or TCDD treated cytosol into DMSO-treated cytosol are done as required by the experiment and are described in the examples.
The ELISA plate containing the treated cytosol is incubated with gentle rocking for 2 hours at 30° C. to allow the transformation of Ah receptor, binding of Ah receptor with ARNT, and binding of the Ah receptor/ARNT complex to the biotinylated DRE, and binding of the biotinylated DRE to the neutravidin bound to the ELISA plate.
After 2 hours the plate is washed 3 times with 400 μL TBS plus 0.02% Tween 20 per well per wash and 200 μL of the working dilution of anti-ARNT added to all wells. The plate is again incubated with gentle rocking at 30° C. for 1 hour. After 1 hour the plate is washed as before and a working dilution (1:4000) of anti-rabbit/alkaline phosphatase conjugate is added to all wells. The plate is incubated for a further 1 hour at 30° C. with gentle rocking and then washed as before. PNPP stock is added to each well (200 μL) and the plate is incubated for 1 hour at 30° C., at which time it is read at 405 nm in an ELISA plate reader and the milli O.D.'s of the wells are recorded.
TCM extracts were tested for their ability to inhibit the transformation of the Ah receptor.

[7] = high dosages over a prolonged period; cited from earlier work
Ah receptor [8] = settings: literature; cited from earlier work

Clc1cc2c(cc1Cl)Oc1cc(Cl)c(Cl)cc1O2 [2,3,7,8-TCDD, 2,3,7,8-Tetrachlorodibenzo-p-dioxin]
Cyclin B (inhibition of cyclin B overexpression) (Cyclin B [1]): 9.32 ± 2.7 scanning densitometric units
inhibition of cyclin B overexpression (figure legend) (Cyclin B [2]): inhibition of cyclin B overexpression
CDK1 Phosphorylation (CDK1): 11.13 ± 3.3 scanning densitometric units
inhibition of syncytia formation / cytopathicity [3]: most effective compound and strongest Ah receptor agonist
Estimated IC50 (Syncitia Quantification), inhibition of HIV-induced cytopathicity [3]: 0.002 µM
EC50 (Ah receptor [4]): 0.0005 µM
Milli O.D. of TCDD control (Ah receptor [4]; Table 12 footnote, .5 nM TCDD, BG subtracted, read at 450 nm): 850 Milli O.D.

COC1C=CC=C(C)C(=O)NC2=CC(=O)C=C(C2=O)C(OC)C(C)CC(OC)C(OC)C(C)C=C(C)C1OC(N)=O (centres unmarked) [Herbimycin A, herbimycin A]
inhibition of cyclin B overexpression (figure legend) (Cyclin B [2]): inhibition of cyclin B overexpression
inhibition of syncytia formation / cytopathicity [3]: block the HIVenv 2-8 induced cytopathic effect
Estimated IC50 (Syncitia Quantification), inhibition of HIV-induced cytopathicity [3]: 0.75 µM
Estimated IC50 (Syncitia Quantification), inhibition of HIV-induced cytopathicity, second value in brackets ([3]; Table 1, positive control): .43 µM

O=c1c(O)c(-c2ccc(O)c(O)c2)oc2cc(O)cc(O)c12 [Quercetin]
anti-proliferative effect [5]: anti-proliferative effect on those transformed, cancerous cells
IC50 (Ah receptor [6]): ~9.93 µM
inhibition of Ah receptor transformation / antagonist activity (words) (Ah receptor [6]; 0.5 nM TCDD): does present antagonistic activity towards the Ah receptor
inhibition of Ah receptor transformation / antagonist activity (words) (Ah receptor [6]; 0.5 nM TCDD, listed as quercetin): antagonistic activity towards the Ah receptor at all doses tried
Quercetin interaction with the Ah receptor, Milli O.D. Reading (Ah receptor [6]; Table 12, 2.5 μg/mL): 480 Milli O.D.
Quercetin interaction with the Ah receptor, Milli O.D. Reading (Ah receptor [6]; Table 12, 5 μg/mL): 320 Milli O.D.
Quercetin interaction with the Ah receptor, Milli O.D. Reading (Ah receptor [6]; Table 12, 10 μg/mL): 260 Milli O.D.
Quercetin interaction with the Ah receptor, Milli O.D. Reading (Ah receptor [6]; Table 12, 20 μg/mL): 210 Milli O.D.
genotoxicity / carcinogenic activity [7]: genotoxic compound, that may initiate carcinogenic activity in certain tissues

O=c1cc(-c2ccccc2)oc2c1ccc1ccccc12 [α-naphthoflavone]
known Ah receptor agonism/antagonism (Ah receptor [8]): known partial agonist and antagonist of the Ah receptor; also recorded: described to act as an Ah receptor antagonist by inhibiting TCDD-induced Ah receptor transformation to a DNA binding form
IC50, inhibition of Ah receptor transformation (estimated) (Ah receptor [6]; 0.5 nM TCDD): 18.6 µM
inhibition of Ah receptor transformation / antagonist activity (words) (Ah receptor [6]; 0.5 nM TCDD): more potent antagonist of the Ah receptor
inhibition of syncytia formation / cytopathicity [3]: correspondingly weaker activity; also recorded: also effective at inhibiting syncytia formation
Estimated IC50 (Syncitia Quantification), inhibition of HIV-induced cytopathicity [3]: 0.35 µM
ability to transform the Ah receptor / agonist activity (Ah receptor [4]; absence of TCDD): very weak agonist of the Ah receptor; also recorded: did not reach the EC50 of TCDD
